Experimental data taken from US20110015067A1, “Herbicidal Compositions Comprising Pyroxasulfone” (BASF SE, priority 2008, published 2011).
Where two headings read alike, the source gives them in different places.

Key:
Assay in all cases: pre-emergence greenhouse test
Assay type in all cases: in vivo
[1] = test system: ABUTH (Abutilon theophrasti); conditions: for observed activity in % destruction: pre-emergence, 50 g ai/ha
Description: (§1) For the pre-emergence treatment, directly after sowing the active compounds, which had been suspended or emulsified in water, were applied by means of finely distributed nozzles. The containers were irrigated gently to promote germination and growth and subsequently covered with transparent plastic hoods until plant had rooted. This cover caused uniform germination of the tests plants, unless this was adversely affected by active compounds.
(§2) The respective herbicides A and/or safener were formulated as 10% by weight strength suspension concentrate and introduced to the spray liquor with the amount of solvent system used for applying the active compound. Herbicide B and/or safener were used as commercially available formulations and introduced to the spray liquor with the amount of solvent system used for applying the active compound. In the examples, the solvent used was water.
(§3) The test period extended over 20 days. During this time, the plants were tended, and their response to the treatments with active compound was evaluated.
(§4) In the following experiments, the herbicidal activity for the individual herbicide compounds (solo application) and of the mixture was assessed 8 days after treatment (8 DAT) and/or 20 days after treatment (20 DAT).
(§5) The evaluation for the damage caused by the chemical compositions was carried out using a scale from 0 to 100%, compared to the untreated control plants. Here, 0 means no damage and 100 means complete destruction of the plants.

[2] = test system: COMBE (Commelina benghalensis); conditions: for inhibition at 12.5 g/ha: Commelina benghalensis, use rate 12.5 g ai/ha, read-out: observed % activity; for inhibition at 12.5 g/ha / observed activity in % destruction: pre-emergence
Description: as §1, §2, §3, §4, §5

SETVI (Setaria viridis) = conditions: for observed activity in % destruction: pre-emergence
Description: as §1, §2, §3, §4, §5

[3] = test system: CCHEC (Cenchrus echinatus)
Description: as §1, §2, §3, §4, §5

[4] = test system: DIGSA (Digitaria sanguinalis); conditions: DIGSA pre-emergence 25 g ai/ha
Description: as §1, §2, §3, §4, §5

[5] = test system: ALOMY (Alopecurus myosuroides); conditions: for observed activity in % destruction: pre-emergence
Description: as §1, §2, §3, §4, §5

PHBPU (Ipomoea purpurea) = conditions: for observed activity in % destruction: pre-emergence, 50 g ai/ha
Description: as §1, §2, §3, §4, §5

[6] = test system: PANDI (Panicum dichotomiflorum); conditions: for observed activity in % destruction: pre-emergence
Description: as §1, §2, §3, §4, §5

[7] = test system: AMARE (Amaranthus retroflexus); conditions: for inhibition at 12.5 g/ha: Amaranthus retroflexus, use rate 12.5 g ai/ha, read-out: observed % activity; for inhibition at 12.5 g/ha / observed activity in % destruction: pre-emergence
Description: as §1, §2, §3, §4, §5

SOLNI (Solanum nigrum) = conditions: for inhibition at 50 g/ha: Solanum nigrum, use rate 50 g ai/ha, read-out: observed % activity; for inhibition at 50 g/ha / observed activity in % destruction: pre-emergence
Description: as §1, §2, §3, §4, §5

SETFA (Setaria faberii) = conditions: SETFA pre-emergence 25 g ai/ha
Description: as §1, §2, §3, §4, §5

[8] = test system: PANMI (Panicum milliaceum)
Description: as §1, §2, §3, §4, §5

[9] = test system: AMBEL (Ambrosia artemisifolia); conditions: for observed activity in % destruction: pre-emergence, 50 g ai/ha
Description: as §1, §2, §3, §4, §5

[10] = ABUTH pre-emergence 6.25 g ai/ha
[11] = ABUTH pre-emergence 12.5 g ai/ha
[12] = COMBE pre-emergence 6.25 g ai/ha
[13] = COMBE pre-emergence 12.5 g ai/ha
[14] = SETVI pre-emergence 6.25 g ai/ha
[15] = SETVI pre-emergence 12.5 g ai/ha
[16] = PANDI pre-emergence 6.25 g ai/ha

Cn1nc(C(F)(F)F)c(CS(=O)(=O)C2=NOC(C)(C)C2)c1OC(F)F [pyroxasulfone, 3-[5-(difluoromethoxy)-1-methyl-3-(trifluoromethyl)pyrazol-4-ylmethylsulfonyl]-4,5-dihydro-5,5-dimethyl-1,2-oxazole]
35%: observed % destruction 20 DAT ([3]; CCHEC pre-emergence 6.25 g ai/ha) | observed % destruction 20 DAT ([8]; PANMI pre-emergence 6.25 g ai/ha)
40%: observed % destruction 20 DAT [1, 11] | observed activity in % destruction ([1]; 8 DAT) | observed % destruction 8 DAT [2, 12] | observed activity in % destruction ([2]; 6.25 g ai/ha, 8 DAT) | observed % destruction 20 DAT ([9]; AMBEL pre-emergence 12.5 g ai/ha) | observed % destruction 20 DAT ([9]; AMBEL pre-emergence 25 g ai/ha)
50%: observed % destruction 20 DAT (SOLNI (Solanum nigrum); SOLNI pre-emergence 6.25 g ai/ha) | observed % destruction 8 DAT (SOLNI (Solanum nigrum); SOLNI pre-emergence 50 g ai/ha) | inhibition at 50 g/ha (SOLNI (Solanum nigrum); 192 h, 8 DAT) | observed activity in % destruction (SOLNI (Solanum nigrum); 50 g ai/ha, 8 DAT) | observed % destruction 8 DAT ([9]; AMBEL pre-emergence 50 g ai/ha) | observed activity in % destruction ([9]; 8 DAT)
55%: observed % destruction 20 DAT (PHBPU (Ipomoea purpurea); PHBPU pre-emergence 12.5 g ai/ha)
0%: observed % destruction 8 DAT [1, 10] | observed % destruction 8 DAT [1, 11] | observed % destruction 20 DAT (PHBPU (Ipomoea purpurea); PHBPU pre-emergence 6.25 g ai/ha) | observed % destruction 20 DAT ([9]; AMBEL pre-emergence 6.25 g ai/ha)
85%: observed % destruction 8 DAT ([5]; ALOMY pre-emergence 50 g ai/ha) | observed activity in % destruction ([5]; 50 g ai/ha, 8 DAT) | observed % destruction 20 DAT ([8]; PANMI pre-emergence 25 g ai/ha) | observed % destruction 20 DAT ([9]; AMBEL pre-emergence 50 g ai/ha) | observed activity in % destruction ([9]; 20 DAT)
65%: observed % destruction 20 DAT ([3]; CCHEC pre-emergence 12.5 g ai/ha) | observed % destruction 8 DAT [6, 16] | observed activity in % destruction ([6]; 6.25 g ai/ha, 8 DAT)
75%: observed % destruction 8 DAT [2, 13] | inhibition at 12.5 g/ha ([2]; 192 h, 8 DAT) | observed activity in % destruction ([2]; 12.5 g ai/ha, 8 DAT) | observed % destruction 20 DAT (SETVI (Setaria viridis); [14]) | observed activity in % destruction (SETVI (Setaria viridis); 6.25 g ai/ha, 20 DAT) | observed % destruction 20 DAT (PHBPU (Ipomoea purpurea); PHBPU pre-emergence 50 g ai/ha) | observed activity in % destruction (PHBPU (Ipomoea purpurea); 20 DAT) | observed % destruction 8 DAT ([8]; PANMI pre-emergence 50 g ai/ha)
30%: observed % destruction 20 DAT [1, 10] | observed % destruction 8 DAT (SETVI (Setaria viridis); [14]) | observed activity in % destruction (SETVI (Setaria viridis); 6.25 g ai/ha, 8 DAT) | observed activity in % destruction (PHBPU (Ipomoea purpurea); 8 DAT) | observed activity in % destruction (SOLNI (Solanum nigrum); 12.5 g ai/ha, 8 DAT) | observed activity in % destruction (SOLNI (Solanum nigrum); 25 g ai/ha, 8 DAT)
95%: observed activity in % destruction ([1]; 20 DAT) | observed % destruction 8 DAT ([2]; COMBE pre-emergence 25 g ai/ha) | observed activity in % destruction ([2]; 25 g ai/ha, 8 DAT) | observed % destruction 20 DAT (SETVI (Setaria viridis); [15]) | observed activity in % destruction (SETVI (Setaria viridis); 12.5 g ai/ha, 20 DAT) | observed % destruction 20 DAT ([7]; AMARE pre-emergence 12.5 g ai/ha) | inhibition at 12.5 g/ha ([7]; 480 h, 20 DAT) | observed activity in % destruction ([7]; 12.5 g ai/ha, 20 DAT) | observed % destruction 20 DAT (SOLNI (Solanum nigrum); SOLNI pre-emergence 50 g ai/ha) | inhibition at 50 g/ha (SOLNI (Solanum nigrum); 480 h, 20 DAT) | observed activity in % destruction (SOLNI (Solanum nigrum); 50 g ai/ha, 20 DAT)
98%: observed % destruction 20 DAT [2, 13] | inhibition at 12.5 g/ha ([2]; 480 h, 20 DAT) | observed activity in % destruction ([2]; 12.5 g ai/ha, 20 DAT) | observed % destruction 20 DAT (SETVI (Setaria viridis); SETVI pre-emergence 25 g ai/ha) | observed % destruction 20 DAT ([5]; ALOMY pre-emergence 12.5 g ai/ha) | observed % destruction 20 DAT ([5]; ALOMY pre-emergence 25 g ai/ha) | observed % destruction 20 DAT ([5]; ALOMY pre-emergence 50 g ai/ha) | observed activity in % destruction ([5]; 12.5 g ai/ha, 20 DAT) | observed activity in % destruction ([5]; 25 g ai/ha, 20 DAT) | observed activity in % destruction ([5]; 50 g ai/ha, 20 DAT) | observed % destruction 20 DAT (SETFA (Setaria faberii))
80%: observed % destruction 8 DAT (SETVI (Setaria viridis); SETVI pre-emergence 25 g ai/ha) | observed activity in % destruction ([5]; 25 g ai/ha, 8 DAT) | observed activity in % destruction ([6]; 12.5 g ai/ha, 8 DAT) | observed % destruction 8 DAT ([7]; AMARE pre-emergence 25 g ai/ha) | inhibition at 12.5 g/ha ([7]; 192 h, 8 DAT) | observed activity in % destruction ([7]; 12.5 g ai/ha, 8 DAT) | observed activity in % destruction ([7]; 25 g ai/ha, 8 DAT)
70%: observed % destruction 20 DAT [2, 12] | observed activity in % destruction ([2]; 6.25 g ai/ha, 20 DAT) | observed % destruction 8 DAT (SETVI (Setaria viridis); [15]) | observed activity in % destruction (SETVI (Setaria viridis); 12.5 g ai/ha, 8 DAT) | observed activity in % destruction ([5]; 12.5 g ai/ha, 8 DAT) | observed % destruction 20 DAT (SOLNI (Solanum nigrum); SOLNI pre-emergence 12.5 g ai/ha) | observed activity in % destruction (SOLNI (Solanum nigrum); 12.5 g ai/ha, 20 DAT)
90%: observed % destruction 8 DAT (SETVI (Setaria viridis); SETVI pre-emergence 50 g ai/ha) | observed activity in % destruction (SETVI (Setaria viridis); 50 g ai/ha, 8 DAT) | observed % destruction 8 DAT [4] | observed % destruction 20 DAT ([5]; ALOMY pre-emergence 6.25 g ai/ha) | observed % destruction 20 DAT [6, 16] | observed % destruction 8 DAT ([6]; PANDI pre-emergence 25 g ai/ha) | observed % destruction 8 DAT ([6]; PANDI pre-emergence 50 g ai/ha) | observed activity in % destruction ([6]; 6.25 g ai/ha, 20 DAT) | observed activity in % destruction ([6]; 50 g ai/ha, 8 DAT) | observed activity in % destruction ([7]; 50 g ai/ha, 8 DAT) | observed % destruction 20 DAT (SOLNI (Solanum nigrum); SOLNI pre-emergence 25 g ai/ha) | observed activity in % destruction (SOLNI (Solanum nigrum); 25 g ai/ha, 20 DAT) | observed % destruction 20 DAT ([8]; PANMI pre-emergence 50 g ai/ha)
100%: observed % destruction 20 DAT ([2]; COMBE pre-emergence 25 g ai/ha) | observed activity in % destruction ([2]; 25 g ai/ha, 20 DAT) | observed % destruction 20 DAT (SETVI (Setaria viridis); SETVI pre-emergence 50 g ai/ha) | observed activity in % destruction (SETVI (Setaria viridis); 50 g ai/ha, 20 DAT) | observed % destruction 20 DAT [4] | observed % destruction 20 DAT ([6]; PANDI pre-emergence 25 g ai/ha) | observed % destruction 20 DAT ([6]; PANDI pre-emergence 50 g ai/ha) | observed activity in % destruction ([6]; 12.5 g ai/ha, 20 DAT) | observed activity in % destruction ([6]; 50 g ai/ha, 20 DAT) | observed % destruction 20 DAT ([7]; AMARE pre-emergence 25 g ai/ha) | observed activity in % destruction ([7]; 25 g ai/ha, 20 DAT) | observed activity in % destruction ([7]; 50 g ai/ha, 20 DAT)
